# Laboratory results as given in patent US7781591B2, “Substituted 3-cyanopyridines as protein kinase inhibitors” (Wyeth LLC, priority 2006, dated 2010).
# Target: T1, human PKCθ full length enzyme (Homo sapiens, UniProt Q04759)
# T1 construct: human PKCθ full length enzyme (Panvera Cat# P2996); purchased Panvera P2996
# Test: PKCθ IMAP assay (fluorescence polarization)
# Assay type: biochemical
# Details: not given
# T1 sequence (Q04759 whole entry): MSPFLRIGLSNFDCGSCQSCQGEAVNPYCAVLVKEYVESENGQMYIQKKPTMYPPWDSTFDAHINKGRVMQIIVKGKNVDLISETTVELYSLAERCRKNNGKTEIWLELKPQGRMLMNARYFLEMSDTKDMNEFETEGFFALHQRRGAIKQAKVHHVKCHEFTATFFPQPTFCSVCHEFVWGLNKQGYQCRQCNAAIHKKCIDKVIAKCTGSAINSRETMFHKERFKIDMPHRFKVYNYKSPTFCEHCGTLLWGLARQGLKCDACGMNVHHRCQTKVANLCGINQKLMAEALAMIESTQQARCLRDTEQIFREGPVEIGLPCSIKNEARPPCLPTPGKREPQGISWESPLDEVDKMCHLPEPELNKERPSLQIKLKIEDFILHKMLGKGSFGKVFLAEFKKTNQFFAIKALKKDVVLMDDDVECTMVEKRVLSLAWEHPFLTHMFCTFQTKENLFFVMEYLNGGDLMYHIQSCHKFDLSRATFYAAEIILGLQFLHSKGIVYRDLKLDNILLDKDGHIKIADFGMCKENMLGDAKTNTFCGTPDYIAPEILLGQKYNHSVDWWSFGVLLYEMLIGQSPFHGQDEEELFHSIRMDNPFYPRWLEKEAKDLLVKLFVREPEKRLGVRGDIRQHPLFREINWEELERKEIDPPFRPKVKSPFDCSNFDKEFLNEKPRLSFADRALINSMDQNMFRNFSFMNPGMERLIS
row,Compound,IC50
1,"Cc1c(Nc2c(C#N)cncc2-c2cc3cc(CN4CCN(C)CC4)ccc3s2)ccc2[nH]ccc12 [Compound 521, 4-[(4-methyl-1H-indol-5-yl)amino]-5-{5-[(4-methylpiperazin-1-yl)methyl]-1-benzothien-2-yl}nicotinonitrile]",1 nM

# Same assay, conditions: human PKCθ full length enzyme, IMAP; average value; read-out: IC50 PKCθ IMAP
row,Compound,IC50
1,"COc1ccc(-c2cncc(C#N)c2Nc2ccc3[nH]ccc3c2)cc1OCCNC1CCCC1 [Compound 243, 5-{3-[2-(cyclopentylamino)ethoxy]-4-methoxyphenyl}-4-(1H-indol-5-ylamino)nicotinonitrile]",230 nM
2,"CN1CCN(Cc2ccc3oc(-c4cncc(C#N)c4Nc4ccc5[nH]ccc5c4)cc3c2)CC1 [Compound 485, 4-(1H-indol-5-ylamino)-5-{5-[(4-methylpiperazin-1-yl)methyl]-1-benzofuran-2-yl}nicotinonitrile]",5 nM
3,"COc1ccc(-c2cncc(C#N)c2Nc2ccc3[nH]ccc3c2)cc1OCCNCc1ccccc1 [Compound 181, 5-{3-[2-(benzylamino)ethoxy]-4-methoxyphenyl}-4-(1H-indol-5-ylamino)nicotinonitrile]",39 nM
4,"N#Cc1cncc(-c2cccc(-c3cc[nH]c3)c2)c1Nc1ccc2[nH]ccc2c1 [Compound 124, 4-(1H-indol-5-ylamino)-5-[3-(1H-pyrrol-3-yl)phenyl]nicotinonitrile]",1100 nM
5,"Cc1c(Nc2c(C#N)cncc2-c2ccc(NC(=O)C(C)C)cc2)ccc2[nH]ccc12 [Compound 579, N-(4-{5-cyano-4-[(4-methyl-1H-indol-5-yl)amino]pyridin-3-yl}phenyl)-2-methylpropanamide]",4730 nM
6,"COc1ncc(-c2cncc(C#N)c2Nc2ccc3[nH]ccc3c2)cn1 [Compound 266, 4-(1H-indol-5-ylamino)-5-(2-methoxypyrimidin-5-yl)nicotinonitrile]",1450 nM
7,"Cc1c(Nc2c(C#N)cncc2-c2cc3cc(CNCC4CCN(C)CC4)ccc3o2)ccc2[nH]ccc12 [Compound 391, 4-[(4-methyl-1H-indol-5-yl)amino]-5-[5-({[(1-methylpiperidin-4-yl)methyl]amino}methyl)-1-benzofuran-2-yl]nicotinonitrile]",1 nM
8,"Cc1c(Nc2c(C#N)cncc2-c2nccn2C)ccc2[nH]ccc12 [Compound 542, 5-(1-methyl-1H-imidazol-2-yl)-4-[(4-methyl-1H-indol-5-yl)amino]nicotinonitrile]",42 nM
9,"COc1ccc(COC(=O)Nc2ccc(-c3cncc(C#N)c3Nc3ccc4[nH]ccc4c3C)cc2F)cc1 [Compound 528, 4-methoxybenzyl (4-{5-cyano-4-[(4-methyl-1H-indol-5-yl)amino]pyridin-3-yl}-2-fluorophenyl)carbamate]",40 nM
10,5-{5-[(cyclohexylamino)methyl]-1-benzofuran-2-yl}-4-[(4-methyl-1H-indol-5-yl)amino]nicotinonitrile [Compound 387],1 nM
11,"CCCCNCc1ccc2sc(-c3cncc(C#N)c3Nc3cccc4[nH]ccc34)cc2c1 [Compound 273, 5-{5-[(butylamino)methyl]-1-benzothien-2-yl}-4-(1H-indol-4-ylamino)nicotinonitrile]",2 nM
12,"CNC(=O)c1ccc(-c2cccc(-c3cncc(C#N)c3Nc3ccc4[nH]ccc4c3)c2)cc1 [Compound 196, 3′-[5-cyano-4-(1H-indol-5-ylamino)pyridin-3-yl]-N-methylbiphenyl-4-carboxamide]",460 nM
13,"N#Cc1cncc(-c2cc3cc(CNCc4ccccn4)ccc3s2)c1Nc1cccc2[nH]ccc12 [Compound 288, 4-(1H-indol-4-ylamino)-5-(5-{[(pyridin-2-ylmethyl)amino]methyl}-1-benzothien-2-yl)nicotinonitrile]",3 nM
14,"COc1ccc(-c2cncc(C#N)c2NCC2CCNCC2)cc1OC [Compound 445, 5-(3,4-dimethoxyphenyl)-4-[(piperidin-4-ylmethyl)amino]nicotinonitrile]",20400 nM
15,"Cc1c(Nc2c(C#N)cncc2-c2ccc(OCCCN(C)C)cc2)ccc2[nH]ccc12 [Compound 475, 5-{4-[3-(dimethylamino)propoxy]phenyl}-4-[(4-methyl-1H-indol-5-yl)amino]nicotinonitrile]",9 nM
16,"CCC(CC)NC(=O)c1ccc(-c2cccc(-c3cncc(C#N)c3Nc3ccc4[nH]ccc4c3)c2)cc1 [Compound 198, 3′-[5-cyano-4-(1H-indol-5-ylamino)pyridin-3-yl]-N-(1-ethylpropyl)biphenyl-4-carboxamide]",330 nM
17,"N#Cc1cncc(-c2cc3cc(CN4CCC(CO)CC4)ccc3s2)c1Nc1cccc2[nH]ccc12 [Compound 284, 5-(5-{[4-(hydroxymethyl)piperidin-1-yl]methyl}-1-benzothien-2-yl)-4-(1H-indol-4-ylamino)nicotinonitrile]",4 nM
18,"N#Cc1cncc(-c2cccc(-c3ccc(C=O)s3)c2)c1Nc1ccc2[nH]ccc2c1 [Compound 150, 5-[3-(5-formyl-2-thienyl)phenyl]-4-(1H-indol-5-ylamino)nicotinonitrile]",120 nM
19,"Cc1c(Nc2c(C#N)cncc2-c2ccc(NC(=O)N(C)C)cc2)ccc2[nH]ccc12 [Compound 568, 3-(4-{5-cyano-4-[(4-methyl-1H-indol-5-yl)amino]pyridin-3-yl}phenyl)-1,1-dimethylurea]",56 nM
20,"Cc1cc2[nH]ccc2cc1Nc1c(C#N)cncc1-c1ccc(OCCN2CCC(N3CCCC3)CC2)cc1 [Compound 506, 4-[(6-methyl-1H-indol-5-yl)amino]-5-{4-[2-(4-pyrrolidin-1-ylpiperidin-1-yl)ethoxy]phenyl}nicotinonitrile]",83 nM

row,Compound,IC50
1,"CN(C)S(=O)(=O)c1cccc(-c2cncc(C#N)c2Nc2cccc3[nH]ccc23)c1 [Compound 313, 3-[5-cyano-4-(1H-indol-4-ylamino)pyridin-3-yl]-N,N-dimethylbenzenesulfonamide]",20 nM
2,"COc1ccc(-c2cncc(C#N)c2Nc2ccc3[nH]ccc3c2)cc1OCCNCCc1ccccc1 [Compound 242, 4-(1H-indol-5-ylamino)-5-(4-methoxy-3-{2-[(2-phenylethyl)amino]ethoxy}phenyl)nicotinonitrile]",20 nM
3,"COc1ccc(-c2cncc(C#N)c2Nc2ccc3[nH]ccc3c2)cc1OCCN1CCSCC1 [Compound 233, 4-(1H-indol-5-ylamino)-5-[4-methoxy-3-(2-thiomorpholin-4-ylethoxy)phenyl]nicotinonitrile]",180 nM
4,"Cc1c(Nc2c(C#N)cncc2-c2cscn2)ccc2[nH]ccc12 [Compound 543, 4-[(4-methyl-1H-indol-5-yl)amino]-5-(1,3-thiazol-4-yl)nicotinonitrile]",8 nM
5,"Cc1c(Nc2c(C#N)cncc2-c2ccc(N(C)C)cc2)ccc2[nH]ccc12 [Compound 574, 5-[4-(dimethylamino)phenyl]-4-[(4-methyl-1H-indol-5-yl)amino]nicotinonitrile]",15 nM
6,"Cc1c(Nc2c(C#N)cncc2-c2cn[nH]c2)ccc2[nH]ccc12 [Compound 584, 4-[(4-methyl-1H-indol-5-yl)amino]-5-(1H-pyrazol-4-yl)nicotinonitrile]",43 nM
7,"CN(C)C(=O)c1cccc(-c2cncc(C#N)c2Nc2cccc3[nH]ccc23)c1 [Compound 312, 3-[5-cyano-4-(1H-indol-4-ylamino)pyridin-3-yl]-N,N-dimethylbenzamide]",600 nM
8,"CCCCNC(=O)Nc1ccc(-c2cncc(C#N)c2Nc2ccc3[nH]ccc3c2C)cc1 [Compound 525, 1-butyl-3-(4-{5-cyano-4-[(4-methyl-1H-indol-5-yl)amino]pyridin-3-yl}phenyl)urea]",7 nM
9,"Cc1c(Nc2c(C#N)cncc2-c2ccc3[nH]ccc3c2)ccc2[nH]ccc12 [Compound 587, 5-(1H-indol-5-yl)-4-[(4-methyl-1H-indol-5-yl)amino]nicotinonitrile]",36 nM
10,"Cc1c(Nc2c(C#N)cncc2-c2ccc(O)cc2)ccc2[nH]ccc12 [Compound 374, 5-(4-hydroxyphenyl)-4-[(4-methyl-1H-indol-5-yl)amino]nicotinonitrile]",20 nM
11,"COc1ccc(-c2cncc(C#N)c2Nc2ccc3[nH]ccc3c2)cc1Br [Compound 188, 5-(3-bromo-4-methoxyphenyl)-4-(1H-indol-5-ylamino)nicotinonitrile]",10 nM
12,"Cc1cc2[nH]ccc2cc1Nc1c(C#N)cncc1-c1cc2cc(CN3CCN(C)CC3)ccc2o1 [Compound 497, 4-[(6-methyl-1H-indol-5-yl)amino]-5-{5-[(4-methylpiperazin-1-yl)methyl]-1-benzofuran-2-yl}nicotinonitrile]",7 nM
13,"CCN(CC)CCOc1cc(-c2cncc(C#N)c2Nc2ccc3[nH]ccc3c2)ccc1OC [Compound 179, 5-{3-[2-(diethylamino)ethoxy]-4-methoxyphenyl}-4-(1H-indol-5-ylamino)nicotinonitrile]",410 nM
14,"Cc1c(Nc2c(C#N)cncc2-c2ccc3sccc3c2)ccc2[nH]ccc12 [Compound 594, 5-(benzo[b]thiophen-5-yl)-4-(4-methyl-1H-indol-5-ylamino)nicotinonitrile]",38 nM
15,"N#Cc1cncc(-c2ccc(OCCCl)cc2)c1Nc1cccc2[nH]ccc12 [Compound 332, 5-[4-(2-chloroethoxy)phenyl]-4-(1H-indol-4-ylamino)nicotinonitrile]",8 nM
16,4-[(4-methyl-1H-indol-5-yl)amino]-5-[5-(thiomorpholin-4-ylmethyl)-2-furyl]nicotinonitrile [Compound 411],8 nM
17,"COc1ccc(CN2CCN(C)CC2)cc1-c1cncc(C#N)c1Nc1ccc2[nH]ccc2c1C [Compound 552, 5-{2-methoxy-5-[(4-methylpiperazin-1-yl)methyl]phenyl}-4-[(4-methyl-1H-indol-5-yl)amino]nicotinonitrile]",84 nM
18,"CN(C)S(=O)(=O)c1ccccc1-c1cncc(C#N)c1Nc1cccc2[nH]ccc12 [Compound 316, 2-[5-cyano-4-(1H-indol-4-ylamino)pyridin-3-yl]-N,N-dimethylbenzenesulfonamide]",1350 nM
19,"N#Cc1cncc(-c2ccncc2)c1Nc1ccc2[nH]ccc2c1 [Compound 261, 4-(1H-indol-5-ylamino)-3,4′-bipyridine-5-carbonitrile]",80 nM
